Results on nine compounds are retold here after publication PMC12652692, “Synthesis and In Vitro Anticancer Evaluation of Novel Phosphonium Derivatives of Chrysin” (International Journal of Molecular Sciences, 2025).

Data set [1] relates to 60 human cancer cell lines. Put plainly: NCI60 one-dose screen, overall mean. The data set is classed as cell-based. The settings on record: mean over all 60 cell lines, read-out: Mean growth percent. The protocol:
The screening results are presented in the Supplementary Materials (Table S1), where the cytotoxicity was determined for the 10 µM concentration. […] The negative numbers indicate significant decreases in the cell number. […] Compared to the reference chrysin (2), all phosphonium hybrids (3a–h) had significant antiproliferative activities. […] At the same time, it should be noted that more than 60% average reduction was also obtained in the case of the other examined conjugates (3a–h).
A detailed description of the NCI screening procedures, including the one-dose and five-dose tests, can be found in the Supplementary Materials, on the website of NCI [39], and in our previous work.
A detailed description of the NCI screening procedures can also be found on the website of NCI [39], and in our […]
All candidates were examined at first at a single high dose (10 μM) in the full NCI60 cell panel. The value reported for the one-dose test is growth relative to the no-drug control and relative to the time zero number of cells. This made possible the disclosure of both growth inhibition (numbers between 0 and 100) and lethality (numbers less than 0). For example, a value of 100 means no growth inhibition. A value of 20 would mean 80% growth inhibition. A value of 0 means no net growth over the course of the analysis. A value of −20 would mean 20% lethality. A value of −100 means all cells are dead. […]
concentration levels. The human tumor cell lines of the cancer screening panel were grown in RPMI 1640 medium containing 5% fetal bovine serum and 2 mM l-glutamine. Characteristically, cells were injected in 96-well microtiter plates in 0.1 mL at plating densities ranging from 5000 to 40,000 cells/well, depending on the doubling time of individual cell lines. After cell inoculation, the microtiter plates were incubated at 37 °C, 5% carbon dioxide, 95% air, and 100% relative humidity for 24 hours before the addition of tested compounds. After 24 hours, 2 plates of each cell line were fixed in situ with Cl3COOH (TCA), to represent a measurement of the cell population for each cell line at the time of drug addition (tz). Tested compounds were solubilized in DMSO at 400-fold the desired final maximum test concentration and stored frozen before application. In the course of the drug addition, an aliquot of frozen concentrate was thawed and diluted to twice the desired final maximum test concentration with a complete medium containing 50 μg mL−1 gentamicin. Additional four, 10-fold or ½ log serial dilutions were produced to furnish a total of five drug concentrations plus control. Aliquots of 0.1 mL of these different drug dilutions were added to the appropriate microtiter wells already containing 0.1 mL of medium, resulting in the required final drug concentrations.
Following drug addition, the plates were incubated at 37 °C, 5% carbon dioxide, 95% air, and 100% relative humidity for an additional 48 hours. For adherent cells, the test was finished by the addition of cold Cl3COOH. Cells were fixed in situ by the addition of 50 μL of cold 50% (w/v) Cl3COOH, and incubated at 4 °C for 1 hour. The supernatant was discarded, and the plates were washed with H2O (5×) and dried in air. Sulforhodamine B (SRB) solution (0.1 mL) at 0.4% (w/v) in 1% CH3COOH was added to each well, and plates were incubated at RT for 10 min. After staining, the unbound dye was removed by washing five times with 1% CH3COOH, and the plates were dried in the air. The bound stain is afterward solubilized with a 10 mM trizma base, and the absorbance is read on an automated plate reader at λ = 515 nm. Utilizing the seven absorbance measurements [time zero (tz), control growth (c), and test growth in the presence of the drug at the five concentration levels (ti)], the percentage growth was determined at each of the drug concentration levels. Growth inhibition (%) was calculated as:
[(ti − tz)/(c − tz)] × 100, for concentrations where ti ≥ tz (1) […]

The next data set relates to non-tumor CHO cells. Kind of data set: CellTiter-Glo Luminescent Cell Viability Assay. The data set is classed as cell-based, Chinese hamster. The settings on record: 48 h; for IC50: Cricetulus griseus, non-tumor CHO cells, read-out: Estimated IC50. Here is the method: (§1) Given their potent antiproliferative effects on tumor cells, two conjugates were selected for testing on non-tumor CHO cells to investigate their selectivity. […] Cell viability of non-tumor CHO cells was assessed using the CellTiter-Glo Luminescent Cell Viability Assay (Promega, Madison, WI, USA), following treatment with 3a and 3f. Stock solutions (10 mM in DMSO) were stored frozen until use. CHO cells were cultured in complete DMEM (low glucose, 1 g/L) supplemented with 10% fetal bovine serum, 1% GlutaMAX-I, 1% non-essential amino acids, and 0.1% penicillin–streptomycin. Cells were seeded into opaque 96-well plates (5000 cells/100 µL/well), with peripheral wells filled with sterile PBS to minimize edge effects. After overnight incubation (37 °C, 5% CO2), cells were treated with increasing concentrations of the compounds (10^−5, 10^−6, and 10^−7 M) diluted in complete DMEM. Untreated cells served as controls, and complete DMEM was used to determine background luminescence. DMSO controls corresponding to the solvent concentrations of each treatment condition were also included; no significant effect on cell viability was observed. After 48 h, CellTiter-Glo reagent was added, and luminescence was measured using an EnSpire AlphaLisa microplate reader (Perkin Elmer). Relative light unit (RLU) values were normalized to untreated controls (100% viability). Non-linear regression analysis was performed in GraphPad Prism 8.0.1 to estimate IC50 values by fitting sigmoidal dose–response curves (log[inhibitor] vs. normalized response, variable slope).

Data set [2] is described as follows: CellTiter-Glo Luminescent Cell Viability Assay. The data set is classed as cell-based, Chinese hamster. The following applies: Chinese hamster, CHO cells (non-tumor), CHO cells, 10^−6 M. The protocol:
as §1

For data set [3], the system named is 60 human cancer cell lines. Further details: method as in doi:10.3311/PPch.21919, PMID 34874114. The following applies: previous work ref 24, 26; cited from earlier work.

For `O=c1cc(-c2ccccc2)oc2cc(OCCCC[P+](c3ccccc3)(c3ccccc3)c3ccccc3)cc(O)c12` [3a], in data set [1], the activity at 10 µM was -74.3%. Besides, the cell viability entry in the data set on non-tumor CHO cells (CHO cells, 10^−6 M) is given as “minimally affected”. Moreover, the concentration for half-maximal inhibition (IC50) in the data set on non-tumor CHO cells was 2650 nM. Turning to `Cc1ccc([P+](CCCCOc2cc(O)c3c(=O)cc(-c4ccccc4)oc3c2)(c2ccc(C)cc2)c2ccc(C)cc2)cc1` [3b], in data set [1], the activity at 10 µM was -69.9%. Still for that read-out and setting: the figure for `COc1ccc([P+](CCCCOc2cc(O)c3c(=O)cc(-c4ccccc4)oc3c2)(c2ccc(OC)cc2)c2ccc(OC)cc2)cc1` [3c] is -68.3%; for `O=c1cc(-c2ccccc2)oc2cc(OCCCC[P+](c3ccc(F)cc3)(c3ccc(F)cc3)c3ccc(F)cc3)cc(O)c12` [3d] it is -69.5%; for `O=c1cc(-c2ccccc2)oc2cc(OCCCC[P+](C3CCCCC3)(C3CCCCC3)C3CCCCC3)cc(O)c12` [3e] it is -76%. For `COc1c(C)cc([P+](CCCCOc2cc(O)c3c(=O)cc(-c4ccccc4)oc3c2)(c2cc(C)c(OC)c(C)c2)c2cc(C)c(OC)c(C)c2)cc1C` [3f], in data set [1], the activity at 10 µM is -63.4%. For the same compound, in data set [2], the viability at 48 h amounted to 60.2 ± 2.9%. Moreover, the IC50 with non-tumor CHO cells is 1150 nM. For the compound `Cc1ccccc1[P+](CCCCOc1cc(O)c2c(=O)cc(-c3ccccc3)oc2c1)(c1ccccc1C)c1ccccc1C` [3g], the activity at 10 µM in data set [1] was -97.7%. Still for that read-out and setting: for `O=c1cc(-c2ccccc2)oc2cc(OCCCC[P+](c3ccccc3)(c3ccccc3)c3ccccn3)cc(O)c12` [3h] the value was -72.3%. In the case of `O=c1cc(-c2ccccc2)oc2cc(O)cc(O)c12` [compound 2, 5,7-dihydroxyflavone, reference compound], in data set [1], the activity at 10 µM was 96.1%. For the same compound, in data set [3], the “antiproliferative effects (in words)” value is given as “does not exert remarkable antiproliferative effects”.
